42 molecules from a melting point compilation (Tetko et al.) can be followed below.

Residues, ends and D or L forms follow the SMILES beside them. *: point of attachment. Boc = CC(C)(C)OC(=O)*; Bn = c1ccc(C*)cc1

`CCCCCCCCCCOc1cc(OCCCCCCCCCC)cc(N(CC(=O)OCOC(C)=O)CC(=O)OCOC(C)=O)c1` returned a melting point of 37 to 39 °C.
The same measure for `O=C(O)CCOC1COCCCC=CC2CC2(C(=O)NS(=O)(=O)C2CC2)NC(=O)C2(NC(=O)Nc3ccccc3)CC(OC(=O)N(CCC(=O)O)c3ccccc3)CN2C1=O` (configuration not stated): 142 to 144 °C; for `CCCCCCCCCCCCOC(CCCCCCCCCCC)CCOC1C(NC(C)=O)C(OCC2OC(C(=O)O)C(NC(=O)CC(O)CCCCCCCCCCC)C(OCCC(O)CCCCCCCCCCC)C2O)OC(CO)C1OP(=O)(O)O` (configuration not stated): 179 to 181 °C.
In turn, `CC1(C)CC(OC(=O)C(CCCCCCC(Cc2ccccc2)(C(=O)OC2CC(C)(C)NC(C)(C)C2)C(=O)OC2CC(C)(C)NC(C)(C)C2)(Cc2ccccc2)C(=O)OC2CC(C)(C)NC(C)(C)C2)CC(C)(C)N1` showed a melting point of 129 to 130 °C.
As for `CCCCc1c(CC[Si](Cl)(Cl)Cl)c(CC[Si](Cl)(Cl)Cl)c(CC[Si](Cl)(Cl)Cl)c(CC[Si](Cl)(Cl)Cl)c1CC[Si](Cl)(Cl)Cl`, the figure is 228 to 235 °C; as for `CC(=O)OCC(CNC(=O)c1c(I)c(NC(=O)C2CCCO2)c(I)c(C(=O)NCC(COC(C)=O)OC(C)=O)c1I)OC(C)=O` (configuration not stated), 101 to 104 °C.
Take `CC(C)(C)c1cc(CCC(=O)OCC(COC(=O)CCc2cc(C(C)(C)C)c(O)c(C(C)(C)C)c2)(COC(=O)CCc2cc(C(C)(C)C)c(O)c(C(C)(C)C)c2)COC(=O)CCc2cc(C(C)(C)C)c(O)c(C(C)(C)C)c2)cc(C(C)(C)C)c1O`: the melting point lay within 55 to 85 °C.
The same measure for `CCCCCCCCCCCCS(=O)(=O)c1cc2c(cc1S(=O)(=O)CCCCCCCCCCCC)C(=O)c1c(c(O)c3cc(S(=O)(=O)CCCCCCCCCCCC)c(S(=O)(=O)CCCCCCCCCCCC)cc3c1O)C2=O`: 180 to 183 °C; for `CCOC(=O)N1c2cc(OC)c(OC)cc2C(=O)C(=CN)C1C` (configuration not stated): 92 to 95 °C; for `COc1cc(OC)c(/C=C/C(c2ccc(OC)c(NC(=O)CC(=O)O)c2)S(=O)(=O)C(/C=C/c2c(OC)cc(OC)cc2OC)c2ccc(OC)c(NC(=O)CC(=O)O)c2)c(OC)c1` (configuration not stated): 118 to 121 °C.
As for `CC1(C)CC(N(c2nc(N(C3CC(C)(C)N(O)C(C)(C)C3)C3CC(C)(C)N(O)C(C)(C)C3)nc(N(C3CC(C)(C)N(O)C(C)(C)C3)C3CC(C)(C)N(O)C(C)(C)C3)n2)C2CC(C)(C)N(O)C(C)(C)C2)CC(C)(C)N1O`, the figure is 258 to 261 °C; as for `COc1cc(OC)c(/C=C/C(c2ccc(OC)c(NC(C)=O)c2)S(=O)(=O)C(/C=C/c2c(OC)cc(OC)cc2OC)c2ccc(OC)c(NC(C)=O)c2)c(OC)c1` (configuration not stated), 220 to 223 °C.
`COc1cc2c(cc1-c1cc3c4cc(-c5ccccc5)ccc4n(CCC(C)CCCC(C)C)c3cc1OC)c1cc(-c3ccccc3)ccc1n2CCC(C)CCCC(C)C` (configuration not stated) registered a melting point of 155 °C.
As for `CC(C)[C@H](NC(=O)N1CCN(c2ccccc2)CC1)C(=O)N[C@@H](Cc1ccccc1)[C@@H](O)[C@H](O)[C@H](Cc1ccccc1)NC(=O)[C@@H](NC(=O)N1CCN(c2ccccc2)CC1)C(C)C`, the figure is 165 to 166 °C; as for `CCOc1cc2c(cc1O)CCC1C2CCC2(C)C(O)CCC12` (configuration not stated), 154 to 155 °C; as for `CCCCCCCCCCCCS(=O)(=O)Nc1cc(C(=O)Nc2ccc(Cl)c(Cl)c2)ccc1OC`, 151 to 152 °C.
The same measure for `CC(C)C[C@H](NC(=O)[C@H](Cc1c[nH]cn1)NC(=O)[C@H](Cc1cccc2ccccc12)NC(=O)OCc1ccccc1)[C@@H](O)CC(=O)NN1CCN(c2cccc(C(F)(F)F)c2)CC1`: 179 to 181 °C; for `FC(F)(F)C(F)(F)C(F)(F)C(F)(F)C(F)(F)C(F)(F)C(F)(F)C(F)(F)CCC1(CCC(F)(F)C(F)(F)C(F)(F)C(F)(F)C(F)(F)C(F)(F)C(F)(F)C(F)(F)F)c2cc(Br)ccc2-c2ccc(Br)cc21`: 130 to 131 °C.
The same measure for `CCC1(O)CC(OC2CC(N(C)C)C(OC3CC4OC5CC(=O)C(C)OC5OC4C(C)O3)C(C)O2)c2c(cc3c(c2O)C(=O)c2c(O)cccc2C3=O)C1C(=O)OC` (configuration not stated): 161 °C.
Regarding `C[C@H](Cc1ccc(OCCCN2CCCCC2)c(OCCCN2CCCCC2)c1)[C@@H](C)Cc1ccc(OCCCN2CCCCC2)c(OCCCN2CCCCC2)c1`, the melting point fell in the range of 84 to 86 °C.
As for `Oc1ccccc1N1CCOCC1`, the figure is 128 °C; as for `O=S(c1cc(C(F)(F)F)[nH]c1-c1ccc(Cl)cc1)C(F)(F)F` (configuration not stated), 198 to 200 °C; as for `O=c1cc(O)cc(-c2ccc(Cl)cc2)o1`, 247 to 249 °C.
As for `CCCCCCCCCCCCCCCCCCSc1nc(SCCCCCCCCCCCCCCCCCC)nc(-c2cc(C(C)(C)C)c(O)c(C(C)(C)C)c2)n1`, the figure is 87 to 89 °C.
The molecule `[N-]=[N+]=C(C(=O)OCCN(CCOC(=O)C(=[N+]=[N-])C(=O)C1CCCCC1)CCN(CCOC(=O)C(=[N+]=[N-])C(=O)C1CCCCC1)CCOC(=O)C(=[N+]=[N-])C(=O)C1CCCCC1)C(=O)C1CCCCC1` yielded a melting point of 112 to 114 °C.
For the molecule `CC(NC(=O)C(Cc1ccc(OCc2ccccc2)cc1)NC(=O)C(COCc1ccccc1)NC(=O)C(Cc1c[nH]c2ccccc12)NC(=O)OC(C)(C)C)C(N)=O` (configuration not stated) (Boc-WS(Bn)Y(Bn)A-NH2; configuration not given here), the melting point was 180 to 185 °C.
As to `Nc1cc(C(F)(F)C(F)(F)OC(F)(F)C(F)(OC(F)(F)C(F)(F)OC(F)(C(F)(F)F)C(F)(F)OC(F)(F)C(F)(F)c2ccc(O)c(N)c2)C(F)(F)F)ccc1O` (configuration not stated), the melting point was in the range of 55 to 58 °C.
The molecule `O=P1(Oc2c(Br)c(Br)c(Br)c(Br)c2Br)OCC2(CO1)COP(=O)(Oc1c(Br)c(Br)c(Br)c(Br)c1Br)OC2` (configuration not stated) had a melting point of 324 to 326 °C.
Molecule `CN(Cc1ccccc1)Cc1c(-c2ccc([N+](=O)[O-])cc2)sc2c1c(=O)n(-c1ccccc1)c(=O)n2Cc1c(F)cccc1F` had a melting point of 173 to 174 °C.
Molecule `BrCCCCCCCCCCCBr` registered a melting point of -11 °C.
`CCCCCCCCCCCCCCCCCCOC(=O)CCSCc1c(C)c(O)c(C)c(CSCCC(=O)OCCCCCCCCCCCCCCCCCC)c1C`: the melting point is 66 to 70 °C.
As for `CC(=O)OC(CN1C(=O)C2(CC(C)(C)N(C(C)=O)C(C)(C)C2)OC12CCCCCCCCCCC2)CN1C(=O)C2(CC(C)(C)N(C(C)=O)C(C)(C)C2)OC12CCCCCCCCCCC2`, the melting point was found to be 122 °C.
As for `CC(=O)OCC(O)CO` (configuration not stated), the figure is 17 °C; as for `CCCCCC/C(=C\C=C\C(=O)O)c1ccc(OC)cc1`, 88 to 89.5 °C; as for `NC(=O)c1c(C(=O)O)cnn1-c1ccccc1`, 234 to 235 °C.
The molecule `CC(C)CCCOC(=O)NCCc1nc(-c2ccc(-c3ccccc3)cc2)c[nH]1` gave a melting point of 128 °C.
`Cc1nc(-c2cncc(F)c2)sc1NC(=O)C(C)CS(C)(=O)=NC#N` (configuration not stated) returned a melting point of 75 to 81 °C.
As for `O=C(O)C1=Cc2cc(Br)ccc2NC1C(F)(F)F` (configuration not stated), the figure is 185 to 186 °C.
For `O=C(O)CCCOc1c(Cl)cccc1Cl`, the melting point was 66 to 67 °C.
The same measure for `CC(C)c1oncc1S(=O)(=O)c1ccc(O)cc1`: 129 to 131 °C; for `CC(CCOc1c(I)cc(I)cc1I)Oc1c(I)cc(I)cc1I` (configuration not stated): 173 to 175 °C.
With `COC(=O)c1ccc([C@H](C)NC(=O)CN2CCN(CC(=O)N[C@@H](C)c3ccccc3)CCN(Cc3ccn(-c4ccc5c(=O)c6cc(C(C)(C)C)ccc6oc5n4)n3)CCN(CC(=O)N[C@@H](C)c3ccccc3)CC2)cc1`, the melting point lay within 187 to 189 °C.
